Results published in US20210275514A1, “COMPOUNDS FOR USE IN TREATING KIDNEY DISORDERS” (Hoffmann-La Roche Inc., priority 2018, published 2021).
“Also recorded” adds a separate entry of the source.

Test system: ABCA1
Assay: ABCA1 expression by western blot in differentiated podocytes
Type: cell-based, human
Conditions: 18 h
Protocol: Podocytes differentiated for 14 days were starved in RPMI-0.2% FBS for 18 h and then treated with freshly prepared dilutions of compounds in full media for 18 h at 37° C. and 5% CO2. Compound concentrations of 1 μM, 5 μM and 10 μM were evaluated. Cells were then washed with PBS and lysed with 1× cell lysis buffer (Cell Signaling) supplemented with protease and phosphatase inhibitor cocktails (Roche). Total protein content was determined by BCA method (Pierce, Thermoscientific). ABCA1 expression was analyzed by western blot.
Lysates, or cell fractions were incubated with buffer sample at 55° C. for 10 min under reducing conditions. A total of […] of protein in lysates, and one third of the volume collected in cell fraction preps, were separated by SDSPAGE in 4-20% gels (Biorad) and proteins were then transferred to PVDF membranes. Membranes were blocked with 5% milk and blotted with protein-specific antibodies for 18 h at 4° C. The following antibodies were used: mouse anti-ABCA1 (Abcam; 1:1,000), rabbit anti-GAPDH antibody (Millipore; 1:10,000), rabbit anti-MEK and anti-Na^+/K^+ ATPase (Cell Signaling; 1:1,000). After washing with PBS-T, membranes were incubated with anti-mouse and anti-rabbit specific antibodies conjugated to HRP (Promega) 1:10,000 in 5% milk. Membranes were washed and signal was developed using Western bright ECL substrate (Advansta).

| Structure (SMILES) | ABCA1 expression (western blot, whole cell lysates) (doses as low as 1 uM, FIG. 4A) | ABCA1 expression (western blot, whole cell lysates) (1 μM, 5 μM and 10 μM evaluated) |
| --- | --- | --- |
| O=C(O)c1ccc(-c2nnc([C@](F)([C@H]3Cc4[nH]c5ccc(Cl)cc5c4C3)S(=O)(=O)c3cccc(Br)c3)o2)cc1 (racemic) [Cpd D, 4-{5-[(RS)-(3-Bromo-benzenesulfonyl)-((SR)-7-chloro-1,2,3,4-tetrahydro-cyclopenta[b]indol-2-yl)-fluoro-methyl]-[1,3,4]oxadiazol-2-yl}-benzoic acid] | strong induction; also recorded: markedly increased | – |
| Cc1nnc([C@](F)([C@H]2Cc3[nH]c4ccc(Cl)cc4c3C2)S(=O)(=O)c2ccccc2)o1 [Cpd E, (R)-2-[(S)-Benzenesulfonyl-fluoro-(5-methyl-[1,3,4]oxadiazol-2-yl)-methyl]-7-chloro-1,2,3,4-tetrahydro-cyclopenta[b]indole] | strong induction; also recorded: markedly increased | – |
| O=C(Nc1cncnc1)c1ccc(OCC(F)(F)F)c(-c2ccc(Cl)cc2)n1 [Cpd F, 6-(4-chlorophenyl)-N-(pyrimidin-5-yl)-5-(2,2,2-trifluoroethoxy)picolinamide] | – | only Cpd A, and Cpd G, increased ABCA1 expression |
